Legend:
[1] = biological target: T1, Peroxisome proliferator-activated receptor gamma (Homo sapiens, UniProt P37231); test: Transactivation activity at human PPARgamma expressed in african green monkey CV1 cells after 24 hrs by luciferase reporter gene assay; type: cell-based, CV-1
T1 sequence (P37231 whole entry): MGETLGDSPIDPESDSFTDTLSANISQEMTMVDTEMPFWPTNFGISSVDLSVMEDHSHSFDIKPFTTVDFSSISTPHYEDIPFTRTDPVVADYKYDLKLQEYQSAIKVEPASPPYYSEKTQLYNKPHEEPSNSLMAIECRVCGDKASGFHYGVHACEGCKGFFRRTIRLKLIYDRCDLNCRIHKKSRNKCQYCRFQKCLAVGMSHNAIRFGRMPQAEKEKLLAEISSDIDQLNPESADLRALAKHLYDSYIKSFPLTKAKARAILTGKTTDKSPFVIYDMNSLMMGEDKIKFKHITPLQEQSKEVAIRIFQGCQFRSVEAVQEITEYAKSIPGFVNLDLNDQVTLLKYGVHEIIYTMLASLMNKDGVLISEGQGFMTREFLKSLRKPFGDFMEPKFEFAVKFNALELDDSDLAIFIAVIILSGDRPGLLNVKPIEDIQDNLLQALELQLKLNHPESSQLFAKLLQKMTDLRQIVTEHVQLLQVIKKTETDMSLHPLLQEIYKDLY

[2] = biological target: T2, Peroxisome proliferator-activated receptor alpha (Homo sapiens, UniProt Q07869); test: Transactivation activity at human PPARalpha expressed in african green monkey CV1 cells after 24 hrs by luciferase reporter gene assay; type: cell-based, CV-1
T2 sequence (Q07869 whole entry): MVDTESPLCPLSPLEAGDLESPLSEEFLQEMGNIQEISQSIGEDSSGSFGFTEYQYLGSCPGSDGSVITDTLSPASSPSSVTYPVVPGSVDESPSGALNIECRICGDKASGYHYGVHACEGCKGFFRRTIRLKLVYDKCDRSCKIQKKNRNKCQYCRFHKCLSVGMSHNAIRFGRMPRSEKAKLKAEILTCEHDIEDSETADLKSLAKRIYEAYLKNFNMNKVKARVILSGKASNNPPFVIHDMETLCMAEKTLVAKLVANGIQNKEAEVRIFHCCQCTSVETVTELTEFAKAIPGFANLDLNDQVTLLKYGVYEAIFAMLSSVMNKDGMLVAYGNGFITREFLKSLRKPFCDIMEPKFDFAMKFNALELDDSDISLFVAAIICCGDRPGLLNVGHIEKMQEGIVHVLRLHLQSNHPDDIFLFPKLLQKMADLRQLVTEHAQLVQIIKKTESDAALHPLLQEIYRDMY

Homo sapiens = organism: Homo sapiens; test: Selectivity ratio of EC50 for human PPARalpha to EC50 for human PPARdelta
Mus musculus = test: Antiobesity activity in high-fat diet fed C57BL/6 mouse assessed as decrease in body weight gain at 10 mg/kg, po QD relative to control; type: functional; set-up: scale not given: the % may be the effect or the level left
[3] = biological target: T3, Peroxisome proliferator-activated receptor delta (Homo sapiens, UniProt Q03181); test: Transactivation activity at human PPARdelta expressed in african green monkey CV1 cells after 24 hrs by luciferase reporter gene assay; type: cell-based, CV-1
T3 sequence (Q03181 whole entry): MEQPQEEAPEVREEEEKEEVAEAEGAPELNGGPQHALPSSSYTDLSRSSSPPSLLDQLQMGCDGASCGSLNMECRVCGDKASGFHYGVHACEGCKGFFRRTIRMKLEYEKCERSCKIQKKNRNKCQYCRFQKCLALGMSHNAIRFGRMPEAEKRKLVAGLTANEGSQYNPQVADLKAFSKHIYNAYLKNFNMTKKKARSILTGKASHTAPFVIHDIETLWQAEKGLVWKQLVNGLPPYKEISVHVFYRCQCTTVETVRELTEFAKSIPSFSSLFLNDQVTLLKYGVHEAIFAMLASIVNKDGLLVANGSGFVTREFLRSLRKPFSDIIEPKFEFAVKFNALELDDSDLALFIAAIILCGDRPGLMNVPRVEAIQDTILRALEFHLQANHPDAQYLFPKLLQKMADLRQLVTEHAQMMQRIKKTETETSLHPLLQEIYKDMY

[4] = biological target: T3, Peroxisome proliferator-activated receptor delta; test: Binding affinity at human GST-tagged PPARdelta ligand binding domain after 1 hr by time-resolved FRET analysis

| Structure (SMILES) | EC50 [1] | EC50 [2] | Ratio EC50 (Homo sapiens) | Activity (Mus musculus) | EC50 [3] | EC50 [4] |
| --- | --- | --- | --- | --- | --- | --- |
| Cc1cc(SC(Cc2c3ccccc3cc3ccccc23)c2sc(-c3ccc(C(F)(F)F)cc3)nc2C)ccc1OCC(=O)O (centres undefined) | > 10 µM | > 10 µM | – | – | – | – |
| Cc1cc(SC(Cc2c(F)cccc2C(F)(F)F)c2sc(-c3ccc(C(F)(F)F)cc3)nc2C)ccc1OCC(=O)O (centres undefined) | > 10 µM | > 10 µM | 10000 | 24% | 0.0012 µM | – |
| Cc1cc(SC(Cc2cc(F)c(F)c(F)c2)c2sc(-c3ccc(C(F)(F)F)cc3)nc2C)ccc1OCC(=O)O (centres undefined) | > 10 µM | > 10 µM | – | – | 0.0067 µM | – |
| Cc1cc(SC(Cc2c(F)cccc2F)c2sc(-c3ccc(C(F)(F)F)cc3)nc2C)ccc1OCC(=O)O (centres undefined) | > 10 µM | > 10 µM | 10000 | 35% | 0.0021 µM | – |
| Cc1cc(SC(CC2CC2)c2sc(-c3ccc(C(F)(F)F)cc3)nc2C)ccc1OCC(=O)O (centres undefined) | > 10 µM | 0.861 µM | – | – | 0.0011 µM | – |
| Cc1cc(SC(CCCCCCCCCCc2ccccc2)c2sc(-c3ccc(C(F)(F)F)cc3)nc2C)ccc1OCC(=O)O (centres undefined) | > 10 µM | > 10 µM | – | – | – | – |
| Cc1cc(SC(Cc2c(F)cccc2Cl)c2sc(-c3ccc(C(F)(F)F)cc3)nc2C)ccc1OCC(=O)O (centres undefined) | > 10 µM | > 10 µM | 10000 | – | 0.0012 µM | – |
| Cc1cc(SC(CCCCCc2ccccc2)c2sc(-c3ccc(C(F)(F)F)cc3)nc2C)ccc1OCC(=O)O (centres undefined) | > 10 µM | > 10 µM | – | – | – | – |
| Cc1cc(SC(CC(C)C)c2sc(-c3ccc(C(F)(F)F)cc3)nc2C)ccc1OCC(=O)O (centres undefined) | > 10 µM | 0.592 µM | – | – | 0.0011 µM | – |
| Cc1cc(SC(CCCCc2ccccc2)c2sc(-c3ccc(C(F)(F)F)cc3)nc2C)ccc1OCC(=O)O (centres undefined) | > 10 µM | > 10 µM | – | – | – | – |
| Cc1cc(SC(Cc2ccc(-c3ccccc3)cc2)c2sc(-c3ccc(C(F)(F)F)cc3)nc2C)ccc1OCC(=O)O (centres undefined) | > 10 µM | > 10 µM | – | – | 0.0044 µM | – |
| Cc1cc(SC(Cc2ccc(F)cc2F)c2sc(-c3ccc(C(F)(F)F)cc3)nc2C)ccc1OCC(=O)O (centres undefined) | > 10 µM | > 10 µM | 10000 | – | 0.0046 µM | – |
| CCCc1c(OCCCSc2ccc(CC(=O)O)cc2Cl)ccc2c(C(F)(F)F)noc12 | – | – | – | – | – | 0.0079 µM |

Source: ChEMBL document CHEMBL2034891, “Discovery, design and synthesis of Y-shaped peroxisome proliferator-activated receptor δ agonists as potent anti-obesity agents in vivo” (Eur J Med Chem, 2012)
